Results from PubChem BioAssay AID248 (DTP/NCI, 2004).
Values joined by “and” are separate entries in the source; they are usually repeats but may differ in a detail not shown here. Identical values can stand only once. Inconclusive results and toxic doses are left out. Cut-off read from the data, not from the text of the source: active = T/C of 150% or more; inactive = T/C below 125%.

System: L1210 leukemia ip in BDF1 mice, survival T/C
Experiment: NCI In Vivo Anticancer Drug Screen. Data for tumor model L1210 Leukemia (intraperitoneal) in B6D2F1 (BDF1) mice
Details: endpoint: mean survival time, higher = longer survival
Outline: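 Transplantable tumor model; survival measured in treated vs vehicle control mice. Value = treated/control.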

[1] = dose: 100.0 mg/kg/injection, schedule: Q01DX001 (ip), vehicle: saline
[2] = dose: 200.0 mg/kg/injection, schedule: Q01DX001 (ip), vehicle: saline
[3] = dose: 400.0 mg/kg/injection, schedule: Q01DX001 (ip), vehicle: saline
[4] = dose: 100.0 mg/kg/injection, schedule: Q04DX003 (ip), vehicle: Klucel (hydroxypropylcellulose) (HPC)
[5] = dose: 100.0 mg/kg/injection, schedule: Q04DX003 (ip), vehicle: saline with Tween-80
[6] = dose: 200.0 mg/kg/injection, schedule: Q04DX003 (ip), vehicle: saline with Tween-80
[7] = dose: 400.0 mg/kg/injection, schedule: Q04DX003 (ip), vehicle: saline with Tween-80
[8] = dose: 100.0 mg/kg/injection, schedule: Q01DX009 (ip), vehicle: Klucel (hydroxypropylcellulose) (HPC)
[9] = dose: 200.0 mg/kg/injection, schedule: Q01DX009 (ip), vehicle: Klucel (hydroxypropylcellulose) (HPC)
[10] = dose: 100.0 mg/kg/injection, schedule: Q04DX003 (ip), vehicle: saline
[11] = dose: 200.0 mg/kg/injection, schedule: Q04DX003 (ip), vehicle: saline
[12] = dose: 100.0 mg/kg/injection, schedule: Q04DX002 (ip), vehicle: Klucel (hydroxypropylcellulose) (HPC)
[13] = dose: 400.0 mg/kg/injection, schedule: Q04DX002 (ip), vehicle: Klucel (hydroxypropylcellulose) (HPC)
[14] = dose: 400.0 mg/kg/injection, schedule: Q01DX009 (ip), vehicle: Klucel (hydroxypropylcellulose) (HPC)
[15] = dose: 100.0 mg/kg/injection, schedule: Q01DX001 (ip), vehicle: carboxymethylcellulose (CMC)
[16] = dose: 200.0 mg/kg/injection, schedule: Q01DX001 (ip), vehicle: carboxymethylcellulose (CMC)
[17] = dose: 400.0 mg/kg/injection, schedule: Q01DX001 (ip), vehicle: carboxymethylcellulose (CMC)
[18] = dose: 200.0 mg/kg/injection, schedule: Q04DX003 (ip), vehicle: Klucel (hydroxypropylcellulose) (HPC)
[19] = dose: 400.0 mg/kg/injection, schedule: Q04DX003 (ip), vehicle: Klucel (hydroxypropylcellulose) (HPC)

Measured: T/C

CCOP(=O)(OCC)OCCSCC
inactive: dose: 75.0 mg/kg/injection, schedule: Q01DX001 (ip), vehicle: saline 103 % of control | dose: 150.0 mg/kg/injection, schedule: Q01DX001 (ip), vehicle: saline 102 % of control

c1ccc(-n2nnnc2-c2nnnn2-c2ccccc2)cc1
inactive: [1] 98 % of control | [2] 98 % of control | [3] 101 % of control

CC(C)(C)C1COP(=S)(c2ccccc2)OC1 (stereo not given)
inactive: [4] 96 % of control

N#[N+]c1nc2ncnc(N)c2[nH]1
inactive: dose: 12.5 mg/kg/injection, schedule: Q01DX Z (ip), vehicle: saline 107 % of control | dose: 25.0 mg/kg/injection, schedule: Q01DX Z (ip), vehicle: saline 114 % of control

OC1CC2CCC1CC2 (stereo not given)
inactive: dose: 100.0 mg/kg/injection, schedule: Q01DX009 (ip), vehicle: saline with Tween-80 100 % of control | [5] 89 % of control | dose: 200.0 mg/kg/injection, schedule: Q01DX009 (ip), vehicle: saline with Tween-80 97 % of control | [6] 96 % of control | dose: 400.0 mg/kg/injection, schedule: Q01DX009 (ip), vehicle: saline with Tween-80 102 % of control | [7] 86 % of control

Nc1ccnc(OCc2ccccc2)n1
inactive: dose: 100.0 mg/kg/injection, schedule: Q01DX001 (ip), vehicle: saline with Tween-80 100 % of control | dose: 200.0 mg/kg/injection, schedule: Q01DX001 (ip), vehicle: saline with Tween-80 100 % of control

Oc1ccc(/C=N\Nc2ccccn2)c(O)c1
inactive: [8] 88 % of control | [9] 91 % of control

O=C(OCCOCCOCCOCCOCCOCCOCCOCCOCCOCCOCCOCCOCCOCCOCCOCCOCCOCCOCCOCCOCCOCCOC(=O)N1CC1)N1CC1
inactive: dose: 100.0 mg/kg/injection, schedule: Q01DX001 (ip), vehicle: acetone 94 % of control | dose: 100.0 mg/kg/injection, schedule: Q01DX009 (ip), vehicle: acetone 98 % of control | [10] 100 % of control | dose: 200.0 mg/kg/injection, schedule: Q01DX001 (ip), vehicle: acetone 94 % of control | dose: 200.0 mg/kg/injection, schedule: Q01DX009 (ip), vehicle: acetone 95 % of control | [11] 103 % of control | dose: 400.0 mg/kg/injection, schedule: Q01DX001 (ip), vehicle: acetone 97 % of control | dose: 400.0 mg/kg/injection, schedule: Q04DX003 (ip), vehicle: saline 108 % of control

Cc1cc(NC(=O)c2ccc(C(=O)Nc3cc(C)nc4ccccc34)cc2)c2ccccc2n1
inactive: dose: 100.0 mg/kg/injection, schedule: Q01DX001 (ip), vehicle: other 102 % of control

CCCCCCCC(=O)N1C=CN(C(=O)CCCCCCC)C1
inactive: dose: 30.0 mg/kg/injection, schedule: Q01DX001 (ip), vehicle: saline 100 % of control | [1] 94 % of control | dose: 300.0 mg/kg/injection, schedule: Q01DX001 (ip), vehicle: saline 94 % of control

CC(=O)Oc1c2ccccc2cc2ccccc12
inactive: [12] 114 % of control | [13] 118 % of control

Cc1c2c(cc3c1OCN(C1CCCCC1)C3)CN(C1CCCCC1)CO2
inactive: [1] 98 % of control | [2] 90 % of control

O=C(O)c1ccc2c(c1)OCO2
inactive: [8] 97 % of control | [9] 92 % of control | [14] 99 % of control

O=C(O)c1cc2cc(Cl)ccc2oc1=O
inactive: [15] 92 % of control | [16] 92 % of control

COc1ccc(OC(C)=O)c(/C=C\C=O)c1
inactive: [15] 94 % of control | [16] 100 % of control | [17] 100 % of control

O=C1OC(=O)c2c3c(c4c(c21)CCC4)CCC3
inactive: dose: 50.0 mg/kg/injection, schedule: Q01DX009 (ip), vehicle: saline 107 % of control | [1] 100 % of control | dose: 100.0 mg/kg/injection, schedule: Q01DX009 (ip), vehicle: saline 93 % of control | [10] 101 % of control | [2] 91 % of control | dose: 200.0 mg/kg/injection, schedule: Q01DX009 (ip), vehicle: saline 94 % of control | [11] 96 % of control | [3] 97 % of control

O=C(OCc1ccccc1)C(=O)OCc1ccccc1
inactive: [8] 90 % of control | [4] 95 % of control | [9] 103 % of control | [18] 100 % of control | [19] 100 % of control

COc1cc(NC(=O)c2ccc(C(=O)Nc3cc(OC)cc4cccnc34)cc2)c2ncccc2c1
inactive: [1] 94 % of control | [2] 100 % of control | [3] 103 % of control

CCCSC(CCc1cnc(N)nc1C)SCCC
inactive: [13] 94 % of control

C=CS(=O)(=O)Cc1ccc(Cl)cc1
inactive: dose: 10.0 mg/kg/injection, schedule: Q04DX002 (ip), vehicle: Klucel (hydroxypropylcellulose) (HPC) 117 % of control | dose: 20.0 mg/kg/injection, schedule: Q04DX002 (ip), vehicle: Klucel (hydroxypropylcellulose) (HPC) 106 % of control | dose: 40.0 mg/kg/injection, schedule: Q04DX002 (ip), vehicle: Klucel (hydroxypropylcellulose) (HPC) 98 % of control

CCCCCCC(=O)N(CCCCC)CCCCC
inactive: [15] 98 % of control | dose: 100.0 mg/kg/injection, schedule: Q01DX009 (ip), vehicle: carboxymethylcellulose (CMC) 96 % of control and 97 % of control | dose: 100.0 mg/kg/injection, schedule: Q04DX002 (ip), vehicle: carboxymethylcellulose (CMC) 100 % of control and 102 % of control | dose: 100.0 mg/kg/injection, schedule: Q04DX003 (ip), vehicle: carboxymethylcellulose (CMC) 93 % of control | [16] 94 % of control | dose: 200.0 mg/kg/injection, schedule: Q01DX009 (ip), vehicle: carboxymethylcellulose (CMC) 96 % of control and 105 % of control | dose: 200.0 mg/kg/injection, schedule: Q04DX002 (ip), vehicle: carboxymethylcellulose (CMC) 98 % of control and 100 % of control | dose: 200.0 mg/kg/injection, schedule: Q04DX003 (ip), vehicle: carboxymethylcellulose (CMC) 95 % of control | [17] 104 % of control | dose: 400.0 mg/kg/injection, schedule: Q04DX002 (ip), vehicle: carboxymethylcellulose (CMC) 98 % of control and 103 % of control | dose: 400.0 mg/kg/injection, schedule: Q04DX003 (ip), vehicle: carboxymethylcellulose (CMC) 97 % of control

CCCN1CCC(C(=O)CC)(c2cccc(O)c2)CC1
inactive: [12] 106 % of control | dose: 200.0 mg/kg/injection, schedule: Q04DX002 (ip), vehicle: Klucel (hydroxypropylcellulose) (HPC) 106 % of control

COc1nc(N)nc2c1ncn2C1OC(CO)CC1O (stereo not given)
inactive: dose: 50.0 mg/kg/injection, schedule: Q01DX001 (ip), vehicle: carboxymethylcellulose (CMC) 93 % of control | [15] 93 % of control | [16] 93 % of control | [17] 96 % of control

COc1cc(CC(=O)N(C)C)c([N+](=O)[O-])cc1OC
inactive: [1] 87 % of control | [2] 93 % of control | [3] 93 % of control

C[C@]12CC[C@@H]3c4ccc(O)cc4CC[C@H]3[C@@H]1C[C@H](O)C2
inactive: dose: 100.0 mg/kg/injection, schedule: Q01DX001 (sc), vehicle: steriod suspending solution 98 % of control | dose: 100.0 mg/kg/injection, schedule: Q04DX003 (sc), vehicle: steriod suspending solution 96 % of control | dose: 200.0 mg/kg/injection, schedule: Q01DX001 (sc), vehicle: steriod suspending solution 102 % of control | dose: 200.0 mg/kg/injection, schedule: Q04DX003 (sc), vehicle: steriod suspending solution 104 % of control | dose: 400.0 mg/kg/injection, schedule: Q01DX001 (sc), vehicle: steriod suspending solution 105 % of control | dose: 400.0 mg/kg/injection, schedule: Q04DX003 (sc), vehicle: steriod suspending solution 94 % of control

CCOc1ccc(OCC)c(NC(=O)c2ccccc2)c1
inactive: [5] 94 % of control | [6] 92 % of control | [7] 95 % of control

Cc1cccc(NC(=O)COc2ccc(Cl)cc2)c1C
inactive: [8] 97 % of control | [4] 92 % of control | [9] 94 % of control | [18] 95 % of control | [14] 97 % of control | [19] 96 % of control

CCCc1cc(CN2CCOCC2)c(O)c(CN2CCOCC2)c1O
inactive: [1] 91 % of control | [2] 93 % of control | [3] 95 % of control
